In patent US9051333B2, “6,7-dihydroimidazo [2,1-b] [1,3]oxazine bactericides” (OTSUKA PHARMACEUTICAL CO., LTD., priority 2011, dated 2015):
≈ marks a conversion by molar mass, not a printed value.

Test system: Mycobacterium tuberculosis (M. tuberculosis kurono)
Experiment: Antimicrobial Assay (Agar Plate Dilution Method), M. tuberculosis kurono
Format: cell-based
Settings: 336 h, M. tuberculosis kurono, 7H11 agar medium, cultured at 37° C. for 14 days, read-out: Minimum Inhibitory Concentration

Row | Compound | MIC
1 | O=[N+]([O-])c1cn2c(n1)O[C@@H](COc1ccc(N3CCC(CCCOc4cccc(C(F)(F)F)c4)CC3)cc1)CC2 [Example 395, (R)-2-nitro-7-(4-{4-[3-(3-trifluoromethylphenoxy)propyl]piperidin-1-yl}phenoxymethyl)-6,7-dihydro-5H-imidazo[2,1-b][1,3]oxazine] | 3 ng/mL (≈ 0.00535 µM)
2 | O=[N+]([O-])c1cn2c(n1)O[C@@H](COc1ccc(N3CCN(CC4CCC(C(F)(F)F)CC4)CC3)cc1)CC2 (stereo partly drawn) [Example 414, (R)-2-nitro-7-{4-[4-(4-trifluoromethyl-cyclohexylmethyl)piperazin-1-yl]phenoxymethyl}-6,7-dihydro-5H-imidazo[2,1-b][1,3]oxazine] | 6 ng/mL (≈ 0.0115 µM)
3 | O=[N+]([O-])c1cn2c(n1)O[C@@H](COc1ccc(N3CCN(C/C=C/c4ccc(C(F)(F)F)cc4)CC3)cc1)CC2 [Example 372, (R)-2-nitro-7-(4-{4-[(E)-3-(4-trifluoromethylphenyl)allyl]piperazin-1-yl}phenoxymethyl)-6,7-dihydro-5H-imidazo[2,1-b][1,3]oxazine] | 6 ng/mL (≈ 0.011 µM)
4 | O=[N+]([O-])c1cn2c(n1)O[C@H](COc1ccc(N3CCC(Cc4ccc(OCc5ccc(C(F)(F)F)cc5)cc4)CC3)cc1)CC2 [Example 254, (S)-2-nitro-7-(4-{4-[4-(4-trifluoromethylbenzyloxy)benzyl]piperidin-1-yl}phenoxymethyl)-6,7-dihydro-5H-imidazo[2,1-b][1,3]oxazine] | 0.8 ng/mL (≈ 0.00128 µM)
5 | CC1(COc2ccc(N3CCN(C/C=C/c4ccc(OC(F)(F)F)cc4)CC3)cc2)CCn2cc([N+](=O)[O-])nc2O1 (centres unmarked) [Example 411, 7-methyl-2-nitro-7-(4-{4-[(E)-3-(4-trifluoromethoxyphenyl)allyl]piperazin-1-yl}phenoxymethyl)-6,7-dihydro-5H-imidazo[2,1-b][1,3]oxazine] | 6 ng/mL (≈ 0.0105 µM)
6 | O=[N+]([O-])c1cn2c(n1)O[C@@H](COc1ccc(OC3CCN(Cc4ccc(OCc5ccc(OC(F)(F)F)cc5)cc4)CC3)cc1)CC2 [Example 206, (R)-2-nitro-7-(4-{1-[4-(4-trifluoromethoxybenzyloxy)benzyl]piperidin-4-yloxy}phenoxymethyl)-6,7-dihydro-5H-imidazo[2,1-b][1,3]oxazine] | ≤ 1.5 ng/mL
7 | CC1(COc2ccc(N3CCC(CCc4ccc(OC(F)(F)F)cc4)CC3)cc2)CCn2cc([N+](=O)[O-])nc2O1 (centres unmarked) [Example 382, 7-methyl-2-nitro-7-(4-{4-[2-(4-trifluoromethoxyphenyl)ethyl]piperidin-1-yl}phenoxymethyl)-6,7-dihydro-5H-imidazo[2,1-b][1,3]oxazine] | 12 ng/mL (≈ 0.0214 µM)
8 | O=[N+]([O-])c1cn2c(n1)O[C@@H](COc1ccc(N3CCN(Cc4ccc(OCc5ccc(C(F)(F)F)cc5)cc4)CC3)cc1)CC2 [Example 182, (R)-2-nitro-7-(4-{4-[4-(4-trifluoromethylbenzyloxy)benzyl]piperazin-1-yl}phenoxymethyl)-6,7-dihydro-5H-imidazo[2,1-b][1,3]oxazine] | ≤ 1.5 ng/mL
9 | O=[N+]([O-])c1cn2c(n1)O[C@@H](COc1ccc(N3CCC(Oc4ccc(SC(F)(F)F)cc4)CC3)cc1)CC2 [Example 446, (R)-2-nitro-7-{4-[4-(4-trifluoromethylsulfanylphenoxy)piperidin-1-yl]phenoxymethyl}-6,7-dihydro-5H-imidazo[2,1-b][1,3]oxazine] | 3 ng/mL (≈ 0.00545 µM)
10 | O=[N+]([O-])c1cn2c(n1)OC(COc1ccc(-c3coc(COc4ccc(OC(F)(F)F)cc4)n3)cc1)CC2 (centres unmarked) [Example 53, 2-nitro-7-{4-[2-(4-trifluoromethoxyphenoxymethyl)oxazol-4-yl]phenoxymethyl}-6,7-dihydro-5H-imidazo[2,1-b][1,3]oxazine] | 100 ng/mL (≈ 0.188 µM)
11 | O=[N+]([O-])c1cn2c(n1)OC(COc1ccc(N3CCC(Oc4ccc(OC(F)(F)F)cc4)CC3)c(F)c1)CC2 (centres unmarked) [Example 147, 7-{3-fluoro-4-[4-(4-trifluoromethoxyphenoxy)piperidin-1-yl]phenoxymethyl}-2-nitro-6,7-dihydro-5H-imidazo[2,1-b][1,3]oxazine] | 50 ng/mL (≈ 0.0905 µM)
